# From patent US11802120B2, “Fused cyclic urea derivatives as CRHR2 antagonist” (RaQualia Pharma Inc., priority 2018, dated 2023)
# Biological target: T1, human CRHR2-alpha (Homo sapiens, UniProt Q13324)
# T1 sequence (Q13324 1-411): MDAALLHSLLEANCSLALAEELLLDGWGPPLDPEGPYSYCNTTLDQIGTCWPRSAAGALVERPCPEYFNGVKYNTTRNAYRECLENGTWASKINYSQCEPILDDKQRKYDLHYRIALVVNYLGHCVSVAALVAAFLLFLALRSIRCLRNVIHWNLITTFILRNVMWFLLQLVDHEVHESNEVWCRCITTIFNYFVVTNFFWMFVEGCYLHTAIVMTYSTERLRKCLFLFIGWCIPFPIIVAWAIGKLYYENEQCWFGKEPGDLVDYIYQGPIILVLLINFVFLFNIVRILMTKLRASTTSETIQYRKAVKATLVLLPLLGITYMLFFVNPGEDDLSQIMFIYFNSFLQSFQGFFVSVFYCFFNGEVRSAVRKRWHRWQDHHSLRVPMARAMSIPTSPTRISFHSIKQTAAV
# Assay: cAMP functional assay for human CRHR2 (LANCE Ultra cAMP, TR-FRET)
# Format: cell-based
# Details: CHO-K1 cells expressing human CRHR2-alpha, agonist human urocortin2 at EC80, cAMP; read-out: IC50 against CRHR2
# Procedure, shortened: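 Inhibition of agonist-driven cAMP was assessed in recombinant CHO-K1 cells at 25° C, using 30 min compound pretreatment and 30 min stimulation with EC80 human urocortin2 (CRHR2) or CRF (CRHR1). IC50 came from dose-response fitting.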
row,IC50 [µM],SMILES
1,< 0.3,"Cc1ncc(Cl)cc1C(=O)N[C@H]1CC[C@H](Cn2c(=O)n(-c3ccc(OC4COC4)nc3)c3ccccc32)CC1 [Example 140, 5-chloro-2-methyl-N-((1r,4r)-4-((3-(6-(oxetan-3-yloxy)pyridin-3-yl)-2-oxo-2,3-dihydro-1H-benzo[d]imidazol-1-yl)methyl)cyclohexyl)nicotinamide]"
2,< 0.3,"Cc1ncc(Cl)cc1C(=O)N[C@H]1CC[C@H](Cn2c(=O)n(-c3cncc(-n4cccn4)c3)c3ccccc32)CC1 [Example 636, N-((1r,4r)-4-((3-(5-(1H-pyrazol-1-yl)pyridin-3-yl)-2-oxo-2,3-dihydro-1H-benzo[d]imidazol-1-yl)methyl)cyclohexyl)-5-chloro-2-methylnicotinamide]"
3,< 0.3,"O=C(NCCF)c1ccc(-n2c(=O)n(C[C@H]3CC[C@H](NC(=O)c4cc(Cl)cnc4C(F)F)CC3)c3ccccc32)cn1 [Example 549, 5-(3-(((1r,4r)-4-(5-chloro-2-(difluoromethyl)nicotina-mido)cyclohexyl)methyl)-2-oxo-2,3-dihydro-1H-benzo[d]imidazol-1-yl)-N-(2-fluoroethyl)picolinamide]"
4,< 0.3,"O=C(N[C@H]1CC[C@H](Cn2c(=O)n(-c3cc(F)ccc3Cl)c3cccnc32)CC1)c1cc(Cl)cnc1C(F)F [Example 676, 5-chloro-N-((1r,4r)-4-((1-(2-chloro-5-fluorophenyl)-2-oxo-1H-imidazo[4,5-b]pyridin-3(2H)-yl)methyl)cyclohexyl)-2-(difluoro-methyl)nicotinamide]"
5,< 0.3,"Cc1cc(-n2c(=O)n(C[C@H]3CC[C@H](NC(=O)c4cc(Cl)cnc4C(F)F)CC3)c3ccccc32)ccn1 [Example 377, 5-chloro-2-(difluoromethyl)-N-((1r,4r)-4-((3-(2-methyl-pyridin-4-yl)-2-oxo-2,3-dihydro-1H-benzo[d]imidazol-1-yl)methyl)cyclohexyl) nicotinamide]"
6,< 0.3,"Cc1ncc(Cl)cc1C(=O)N[C@H]1CC[C@H](Cn2c(=O)n(C3CCN(c4cccnc4)CC3)c3ccccc32)CC1 [Example 513, 5-chloro-2-methyl-N-((1r,4r)-4-((2-oxo-3-(1-(pyridin-3-yl)piperidin-4-yl)-2,3-dihydro-1H-benzo [d]imidazol-1-yl)methyl)cyclohexyl)nicotinamide]"
7,< 0.3,"Cc1ncc(Cl)cc1C(=O)N[C@H]1CC[C@H](Cn2c(=O)n(-c3ccnc(N(C)C)c3)c3ccccc32)CC1 [Example 649, 5-chloro-N-((1r,4r)-4-((3-(2-(dimethylamino)pyridin-4-yl)-2-oxo-2,3-dihydro-1H-benzo[d]imidazol-1-yl)methyl)cyclohexyl)-2-methyl-nicotinamide]"
8,< 0.3,"CNC(=O)c1cc2cc(-n3c(=O)n(C[C@H]4CC[C@H](NC(=O)c5cc(Cl)cnc5C)CC4)c4ccccc43)ccc2n1C [Example 404, 5-(3-(((1r,4r)-4-(5-chloro-2-methylnicotinamido)cyclo-hexyl)methyl)-2-oxo-2,3-dihydro-1H-benzo[d]imidazol-1-yl)-N,1-dimethyl-1H-indole-2-carboxamide]"
9,< 0.3,"Cc1ncc(Cl)cc1C(=O)N[C@H]1CC[C@H](Cn2c(=O)n(-c3cnc4cc[nH]c4c3)c3ccccc32)CC1 [Example 158, 5-chloro-2-methyl-N-((1r,4r)-4-((2-oxo-3-(1H-pyrrolo[3,2-b]pyridin-6-yl)-2,3-dihydro-1H-benzo[d]imidazol-1-yl)methyl)cyclohexyl)nicotinamide]"
10,< 0.3,"Cc1ncc(Cl)cc1C(=O)N[C@H]1CC[C@H](Cn2c(=O)n(-c3ccc(-c4cn[nH]c4)nc3)c3ccccc32)CC1 [Example 203, N-((1r,4r)-4-((3-(6-(1H-pyrazol-4-yl)pyridin-3-yl)-2-oxo-2,3-dihydro-1H-benzo[d]imidazol-1-yl)methyl)cyclohexyl)-5-chloro-2-methylnicotinamide]"
11,< 0.3,"O=C(N[C@H]1CC[C@H](Cn2c(=O)n(-c3ccc(-n4nccn4)nc3)c3ccccc32)CC1)c1cc(Cl)cnc1C(F)F [Example 685, N-((1r,4r)-4-((3-(6-(2H-1,2,3-triazol-2-yl)pyridin-3-yl)-2-oxo-2,3-dihydro-1H-benzo[d]imidazol-1-yl)methyl)cyclohexyl)-5-chloro-2-(difluoromethyl) nicotinamide]"
12,< 0.3,"Cc1ccc(-n2c(=O)n(C[C@H]3CC[C@H](NC(=O)c4cc(Cl)ccc4C(F)(F)F)CC3)c3ccccc32)cn1 [Example 270, 5-chloro-N-((1r,4r)-4-((3-(6-methylpyridin-3-yl)-2-oxo-2,3-dihydro-1H-benzo[d]imidazol-1-yl)methyl)cyclo-hexyl)-2-(trifluoromethyl) benzamide]"
13,< 0.3,"CC(=O)N1Cc2ccc(-n3c(=O)n(C[C@H]4CC[C@H](NC(=O)c5cc(Cl)cnc5C)CC4)c4ccccc43)cc2C1 [Example 188, N-((1r,4r)-4-((3-(2-acetylisoindolin-5-yl)-2-oxo-2,3-dihydro-1H-benzo[d]imidazol-1-yl)methyl)cyclohexyl)-5-chloro-2-methylnicotinamide]"
14,< 0.3,"Cc1ncc(Cl)cc1C(=O)N[C@H]1CC[C@H](Cn2c(=O)n(-c3ccc(N4CCOCC4)nc3)c3ccccc32)CC1 [Example 54, 5-chloro-2-methyl-N-((1r,4r)-4-((3-(6-morpholinopyridin-3-yl)-2-oxo-2,3-dihydro-1H-benzo[d]imidazol-1-yl)methyl)cyclohexyl) nicotinamide]"
15,< 0.3,"Cc1ncc(Cl)cc1C(=O)N[C@H]1CC[C@H](Cn2c(=O)n(Cc3ccccc3C#N)c3ccccc32)CC1 [Example 241, 5-chloro-N-((1r,4r)-4-((3-(2-cyanobenzyl)-2-oxo-2,3-dihydro-1H-benzo[d]imidazol-1-yl)methyl)cyclohexyl)-2-methylnicotinamide]"
16,< 0.3,"Cc1cc2cc(-n3c(=O)n(C[C@H]4CC[C@H](NC(=O)c5cc(Cl)cnc5C(F)F)CC4)c4ccccc43)cnc2[nH]1 [Example 673, 5-chloro-2-(difluoromethyl)-N-((1r,4r)-4-((3-(2-methyl-1H-pyrrolo[2,3-b]pyridin-5-yl)-2-oxo-2,3-dihydro-1H-benzo[d]imidazol-1-yl)methyl)cyclohexyl)nicotinamide]"
17,< 0.3,"CNC(=O)c1ccc(-n2c(=O)n(C[C@H]3CC[C@H](NC(=O)c4cc(Cl)cnc4C(F)F)CC3)c3ccc(OC)cc32)cn1 [Example 390, 5-(3-(((1r,4r)-4-(5-chloro-2-(difluoromethyl)nicotinamido)cyclohexyl)methyl)-6-me-thoxy-2-oxo-2,3-dihydro-1H-benzo[d]imidazol-1-yl)-N-methylpicolinamide]"
18,< 0.3,"Cc1ncc(Cl)cc1C(=O)N[C@H]1CC[C@H](Cn2c(=O)n(-c3ccc4c(Cl)n[nH]c4c3)c3ccccc32)CC1 [Example 210, 5-chloro-N-((1r,4r)-4-((3-(3-chloro-1H-indazol-6-yl)-2-oxo-2,3-dihydro-1H-benzo[d]imidazol-1-yl)methyl)cyclohexyl)-2-methylnicotinamide]"
19,< 0.3,"Cc1cnccc1-n1c(=O)n(C[C@H]2CC[C@H](NC(=O)c3cc(Cl)cnc3C(F)(F)F)CC2)c2ccccc21 [Example 289, 5-chloro-N-((1r,4r)-4-((3-(3-methylpyridin-4-yl)-2-oxo-2,3-dihydro-1H-benzo[d]imidazol-1-yl)methyl)cyclo-hexyl)-2-(trifluoromethyl) nicotinamide]"
20,< 0.3,"Cc1ncc(Cl)cc1C(=O)N[C@H]1CC[C@H](Cn2c(=O)n(-c3ccc4ocnc4c3)c3ccccc32)CC1 [Example 264, N-((1r,4r)-4-((3-(benzo[d]oxazol-5-yl)-2-oxo-2,3-dihydro-1H-benzo[d]imidazol-1-yl)methyl)cyclo-hexyl)-5-chloro-2-methyl-nicotinamide]"
21,< 0.3,"Cc1ncc(Cl)cc1C(=O)N[C@H]1CC[C@H](Cn2c(=O)n(-c3ccc(C4=CCOCC4)nc3)c3ccccc32)CC1 [Example 84, 5-chloro-N-((1r,4r)-4-((3-(6-(3,6-dihydro-2H-pyran-4-yl)pyridin-3-yl)-2-oxo-2,3-dihydro-1H-benzo[d]imidazol-1-yl)methyl)cyclohexyl)-2-methylnicotinamide]"
22,< 0.3,"CC(C)Nc1ccc(-n2c(=O)n(C[C@H]3CC[C@H](NC(=O)c4cc(Cl)cnc4C(F)F)CC3)c3ccccc32)cn1 [Example 514, 5-chloro-2-(difluoromethyl)-N-((1r,4r)-4-((3-(6-(iso-propylamino)pyridin-3-yl)-2-oxo-2,3-dihydro-1H-benzo [d]imidazol-1-yl)methyl)cyclohexyl)nicotinamide]"
23,< 0.3,"CNc1ccc(-n2c(=O)n(C[C@H]3CC[C@H](NC(=O)c4cc(Cl)cnc4C(F)F)CC3)c3ccccc32)nc1 [Example 660, 5-chloro-2-(difluoromethyl)-N-((1r,4r)-4-((3-(5-(methylamino)pyridin-2-yl)-2-oxo-2,3-dihydro-1H-benzo[d]imidazol-1-yl)methyl)cyclohexyl)nicotinamide]"
24,< 0.3,"O=C(Cn1c(=O)n(C[C@H]2CC[C@H](NC(=O)c3cc(Cl)ccc3Cl)CC2)c2ccccc21)c1ccccc1 [Example 287, 2,5-dichloro-N-((1r,4r)-4-((2-oxo-3-(2-oxo-2-phenylethyl)-2,3-dihydro-1H-benzo[d]imidazol-1-yl)methyl)cyclo-hexyl)benzamide]"
